Common to all, as to assay type: cell-based
The test system of experiment [1] is herpes simplex virus 1 (HSV-1; strain HFEM). The experiment is described as follows: Plaque reduction test for herpes simplex virus 1. To be noted: read-out: IC₅₀ Herpes Simplex virus Type 1 HFEM strain in Vero cells. How it is done: (§1) Cells (Vero or MRC-5) were grown to confluence in 24 well multi-dishes (well diameter = 1.5cm). The drained cell monolayers were each infected with approximately 50 infectious particles of herpes simplex virus 1 (HSV-1; strain HFEM) or herpes simplex virus 2 (HSV-2; strain MS) in 100µl of phosphate-buffered saline. The virus was absorbed for 1 hour at room temperature. After adsorption, residual inoculum was removed from each well and replaced with 0.5ml of Eagle's MEM containing 5% newborn calf serum and 0.9% agarose (A37). Once the agarose had set, dilutions of the test compound, which had been prepared in Eagle's MEM (containing 5% newborn calf serum), were added, each well receiving 0.5ml of liquid overlay. The test compound was diluted to give the following series of concentrations: 200, 60, 20, 6....0.06µg/ml; final concentrations in the assay ranged, therefore, between 100µg/ml and 0.03µg/ml. The infected cultures were incubated at 37°C in a humidified atmosphere of 5% CO₂ until plaques were clearly visible (2 or 3 days for Vero cells, usually […] for MRC-5 cells).
(§2) Cultures from 1 and 2 were fixed in formol saline, the agarose overlays were carefully washed off, and then the cell monolayers were stained with carbol fuchsin. A stereo microscope was used to count plaques. The IC₅₀ (concentration of drug which inhibits the number of plaques formed by 50% relative to the number of plaques observed in virus control monolayers) of the test compound was calculated. In addition, the monolayers were examined for evidence of drug-induced cytotoxicity; the minimum concentration at which cytotoxicity occurs was recorded.
On the technique in general: Plaque reduction counts the foci of infection that form in a cell layer.

Experiment [2] deals with visna virus (strain K184). Briefly: CPE inhibition test (established monolayer) for lentiviruses. To be noted: Visna-maedi virus, read-out: MIC Visna Virus K184 strain in SCP cells. Here is the method: 3 x 10⁴ sheep choroid plexus (SCP) cells were plated into individual wells of a 96 well microtitre plate in 100µl of Eagle's MEM with Hanks' salts containing 10% heat inactivated foetal calf serum (FCS). When monolayers had become established (after 1 or 2 days growth) they were washed with 200µl of maintenance medium (Eagle's MEM with Hanks' salts containing 0.5% FCS) and infected with 100µl of visna virus (strain K184) in maintenance medium (20 TCID₅₀/ml). Test samples were diluted with maintenance medium in further 96 well microtitre plates over the range 200-0.06µg/ml by 3-fold dilution steps. 100µl of the diluted samples was then transferred directly onto virus-infected monolayers (final concentration range therefore 100-0.03µg/ml) and incubated at 37°C in a humidified atmosphere containing, 5% CO₂ until virus-induced CPE was maximal in the untreated virus-infected controls (usually 12-14 days). The plates were fixed with formal saline and stained with crystal violet. Virus-induced CPE was then scored microscopically and the minimum concentration of sample giving complete protection of the cell monolayers (MIC) determined.

Experiment [3] relates to herpes simplex virus 2 (HSV-2; strain MS). Briefly: Plaque reduction test for herpes simplex virus 2. Here is the method:
as §1, §2

For experiment [4], the system named is varicella zoster virus (VZV; Ellen strain). Briefly: Plaque reduction test for varicella zoster virus. How it is done:
MRC-5 cells were grown to confluence in 24 well multi-dishes (well diameter = 1.5cm). The drained cell monolayers were each infected with approximately 50 infectious particles of varicella zoster virus (VZV; Ellen strain) in 100µl of phosphate-buffered saline. The virus was adsorbed for 1 hour at room temperature. After adsorption, residual inoculum was removed from each well and replaced with 0.5ml of Eagles's MEM containing 5% […] foetal calf serum and 0.9% agarose (A37). Once the agarose had set, dilutions of the test compound, which had been prepared in Eagle's MEM (containing 5% heat-inactivated foetal calf serum), were added, each well receiving 0.5ml of liquid overlay. The test compound was diluted to give the following series of concentrations: 200, 60, 20, 6....0.06µg/ml; final concentrations in the assay ranged, therefore, between 100µg/ml and 0.03µg/ml. The infected cultures were incubated at 37°C in a humidified atmosphere of 5% CO₂ until plaques were clearly visible (5 or 6 days).
as §2

Setting [5] is: Human alphaherpesvirus 2, MRC5, read-out: IC₅₀ Herpes Simplex virus Type 2 MS strain in MRC-5 cells.
Where [6] appears, read: Human alphaherpesvirus 3, MRC5, read-out: IC₅₀ Varicella Zoster virus Ellen strain in MRC-5 cells.
Where [7] appears, read: Human alphaherpesvirus 1, plaque reduction, HFEM strain, Vero cells.
[8] abbreviates: minimum concentration giving complete protection of the cell monolayers from virus-induced CPE, sheep choroid plexus (SCP) cells.
Setting [9] is: Human alphaherpesvirus 2, MRC5, plaque reduction, MS strain, MRC-5 cells, read-out: IC₅₀ Herpes Simplex virus Type 2 MS strain in MRC-5 cells.
The mark [10] stands for this setting: Human alphaherpesvirus 3, MRC5, plaque reduction, Ellen strain, MRC-5 cells, read-out: IC₅₀ Varicella Zoster virus Ellen strain in MRC-5 cells.

Converted amounts (≈) assume the structure as drawn. Like-named read-outs stand apart in the source and are kept apart here.

On to `CCOP(=O)(COCCOn1cnc2c(N)ncnc21)OCC` [Example 1, 9-[2-(Diethoxyphosphorylmethoxy)ethoxy]adenine], for which the IC50 in experiment [1] (Human alphaherpesvirus 1, Vero) was over 100 µg/mL; in experiment [3] (setting [5]), over 100 µg/mL; in experiment [4] (setting [6]), over 100 µg/mL. The MIC in experiment [2] (in Ovis aries) was found to be 100 µg/mL (≈ 290 µM).

Turning to `Nc1ncnc2c1ncn2OCCOCP(=O)(O)O` [Example 2, 9-[2-(Phosphonemethoxy)ethoxy]adenine], the results for the IC50 in experiment [1] (setting [7]), in experiment [3] (setting [9]) and in experiment [4] (setting [10]) were over 100 µg/mL, 69 µg/mL (≈ 239 µM) and 80 µg/mL (≈ 277 µM), respectively. For the same compound, in experiment [2] (setting [8]), the MIC was determined as 3 µg/mL (≈ 10.4 µM).

`CCOP(=O)(COCCOn1cnc2c(=O)[nH]c(N)nc21)OCC` [Example 3, 9-[2-(Diethoxyphosphorylmethoxy)ethoxy]guanine]: the IC50 is over 100 µg/mL in experiment [1] (Human alphaherpesvirus 1, Vero); over 100 µg/mL in experiment [3] (setting [5]); 51 µg/mL (≈ 141 µM) in experiment [4] (setting [6]). Moreover, in experiment [2] (in Ovis aries), the MIC was found to be 10 µg/mL (≈ 27.7 µM).

Take `Nc1nc2c(ncn2OCCOCP(=O)(O)O)c(=O)[nH]1` [Example 4, 9-[2-(Phosphonomethoxy)ethoxy]guanine]: the IC50 in experiment [1] (setting [7]) was 1.1 µg/mL (≈ 3.6 µM); in experiment [3] (setting [9]) it was 0.08 µg/mL (≈ 0.262 µM); in experiment [4] (setting [10]), 0.06 µg/mL (≈ 0.197 µM). Moreover, the MIC in experiment [2] (setting [8]) was under 0.003 µg/mL.

`CCOP(=O)(O)COCCOn1cnc2c(=O)[nH]c(N)nc21` [Example 5, 9-[2-[Ethoxy(hydroxy)phosphorylmethoxy)ethoxy]guanine]: the IC50 in experiment [1] (Human alphaherpesvirus 1, Vero) was 59 µg/mL (≈ 177 µM); in experiment [4] (setting [6]), under 3 µg/mL.

Turning to `Nc1ncnc2c1ncn2OCC(CO)OCP(=O)(O)O` (centres unmarked) [Example 7, 9-[3-Hydroxy-2-(phosphonomethoxy)propoxy]adenine], the IC50 was over 100 µg/mL in experiment [1] (setting [7]), over 100 µg/mL in experiment [3] (setting [9]) and 66 µg/mL (≈ 207 µM) in experiment [4] (setting [10]). Moreover, the MIC in experiment [2] (setting [8]) stood at 0.3 µg/mL (≈ 0.94 µM).

Turning to `CCOP(=O)(O)COC(CO)COn1cnc2c(N)ncnc21` (centres unmarked) [Example 8, 9-[2-[ethoxy(hydroxy)phosphorylmethoxy]-3-hydroxypropoxy]adenine], the IC50 in experiment [1] (Human alphaherpesvirus 1, Vero) was over 100 µg/mL; in experiment [3] (setting [5]), over 100 µg/mL; in experiment [4] (setting [6]), 60 µg/mL (≈ 173 µM). In experiment [2] (in Ovis aries), the MIC was determined as 1 µg/mL (≈ 2.88 µM).

Consider `Nc1nc2c(ncn2OCC(CO)OCP(=O)(O)O)c(=O)[nH]1` (centres unmarked) [Example 10, 9-[3-Hydroxy-2-(phosphonomethoxy)propoxy]guanine], for which the IC50 in experiment [1] (setting [7]) was determined as 17 µg/mL (≈ 50.7 µM); in experiment [3] (setting [9]), 7.3 µg/mL (≈ 21.8 µM); in experiment [4] (setting [10]), 21 µg/mL (≈ 62.6 µM). The MIC in experiment [2] (setting [8]) is under 0.003 µg/mL.

As for `CCOP(=O)(COCCOn1cnc2c(N)nc(N)nc21)OCC` [Example 11, 2,6-Diamino-9-[2-(diethoxyphosphorylmethoxy)ethoxy]purine], the IC50 in experiment [1] (Human alphaherpesvirus 1, Vero) was over 100 µg/mL; in experiment [4] (setting [6]), over 100 µg/mL. In addition, in experiment [2] (in Ovis aries), the MIC was found to be 30 µg/mL (≈ 83.3 µM).

Turning to `Nc1nc(N)c2ncn(OCCOCP(=O)(O)O)c2n1` [Example 12, 2,6-Diamino-9-[2-phosphonomethoxy)ethoxy]purine], the values for the IC50 in experiment [1] (setting [7]) and in experiment [4] (setting [10]) were 24 µg/mL (≈ 78.9 µM) and under 3 µg/mL, respectively. Further, the MIC in experiment [2] (setting [8]) came to 0.3 µg/mL (≈ 0.986 µM).

For the compound `Nc1nc(Cl)c2ncn(OCCOCP(=O)(O)O)c2n1` [Example 13, 2-Amino-6-chloro-9-[2-(phosphonomethoxy)ethoxy]purine], the IC50 was 3.7 µg/mL (≈ 11.4 µM) in experiment [1] (setting [7]) and 0.5 µg/mL (≈ 1.54 µM) in experiment [4] (setting [10]). Moreover, the MIC in experiment [2] (setting [8]) was under 0.03 µg/mL.

Consider `COc1nc(N)nc2c1ncn2OCCOCP(=O)(O)O` [Example 14, 2-Amino-6-methoxy-9-[2-(phosphonomethoxy)ethoxy]purine], for which the IC50 in experiment [1] (setting [7]) was under 3 µg/mL; in experiment [4] (setting [10]) it was under 0.03 µg/mL. Moreover, the MIC in experiment [2] (setting [8]) was under 0.03 µg/mL.

Consider `Nc1nc2c(ncn2OCC2COP(=O)(O)CO2)c(=O)[nH]1` (centres unmarked) [Example 15, 9-[(2-Hydroxy-2-oxo-1,4,2-dioxaphosphorinan-5-yl)methoxy]guanine], for which the IC50 in experiment [1] (setting [7]) is 29 µg/mL (≈ 91.4 µM); in experiment [4] (setting [10]), under 3 µg/mL.

Values taken from patent EP0319228A2, “Novel compounds” (BEECHAM GROUP PLC, priority 1987, dated 1989).
